The nature of data set [1]: pH of purified gabapentin / gabapentin tablets. Type of data set: physicochemical.
A short description of data set [2]: Storage stability: conversion of gabapentin to its corresponding lactam (HPLC vs. standard). The note with it: gabapentin pure; for conversion of gabapentin to its corresponding lactam: after a year of storage at 25° C. and 60% relative humidity. Type of data set: physicochemical. The procedure:
Gabapentin purified according to these procedures contains less than 0.5% lactam as measured by HPLC vs. standard. After a year of storage at 25° C. and 60% relative humidity, the conversion of gabapentin to its corresponding lactam is measured not to exceed 0.2% by weight of gabapentin.

The conditions of data set [3]: according to Augart (U.S. Pat. No. 6,054,482); cited from earlier work.
Another data set relates to cardiozole cramp. The note with it: in animals; U.S. Pat. No. 4,024,175; cited from earlier work.
The mark [4] stands for this setting: gabapentin pure after crystallization in methanol (Examples 11-16: basic agent added).
The mark [5] stands for this setting: gabapentin pure after the reslurry in methanol (Examples 2, 3: basic agent added).

`NCC1(CC(=O)O)CCCCC1` [Example 15, 1-(aminomethyl)-1-cyclohexaneacetic acid]: the pH in data set [1] (setting [4]) was 7.22.

Compound `NCC1(CC(=O)O)CCCCC1` [Example 14, 1-(aminomethyl)-1-cyclohexaneacetic acid] had a pH in data set [1] (setting [4]) of 7.03.

Regarding `NCC1(CC(=O)O)CCCCC1` [Example 11, 1-(aminomethyl)-1-cyclohexaneacetic acid], the pH in data set [1] (setting [4]) was determined as 7.25. Also, the “conversion of gabapentin to its corresponding lactam” value (“conversion of gabapentin” below) in data set [2] is given as ≤ 0.2 % by weight of gabapentin.

In data set [1] (setting [5]), `NCC1(CC(=O)O)CCCCC1` [Example 3, 1-(aminomethyl)-1-cyclohexaneacetic acid] had a pH of 6.8. In addition, the “conversion of gabapentin” value in data set [2] is on record as ≤ 0.2 % by weight of gabapentin.

Take `O=C1CC2(CCCCC2)CN1` [lactam]: the “toxicity compared with gabapentin” value in data set [3] is reported as “higher toxicity than gabapentin”.

For `NCC1(CC(=O)O)CCCCC1` [Example 13, 1-(aminomethyl)-1-cyclohexaneacetic acid], in data set [1] (setting [4]), the pH was determined as 7.28. In data set [2] (after a year of storage at 25° C. and 50% relative humidity), the “amount of lactam after storage” value is on record as “less than 0.5 % by weight”. Further, the “conversion of gabapentin” value in data set [2] was ≤ 0.2 % by weight of gabapentin.

Consider `NCC1(CC(=O)O)CCCCC1` [Example 1, 1-(aminomethyl)-1-cyclohexaneacetic acid], for which the pH in data set [1] (setting [5]) was 6.84-7.04. Further, the “conversion of gabapentin” value in data set [2] was ≤ 0.2 % by weight of gabapentin.

In the case of `NCC1(CC(=O)O)CCCCC1` [Example 4, 1-(aminomethyl)-1-cyclohexaneacetic acid], in data set [2], the “conversion of gabapentin” value is on record as ≤ 0.2 % by weight of gabapentin.

Regarding `NCC1(CC(=O)O)CCCCC1` [Example 16, 1-(aminomethyl)-1-cyclohexaneacetic acid], in data set [1] (setting [4]), the pH was determined as 7.17.

Regarding `NCC1(CC(=O)O)CCCCC1` [gabapentin, 1-(aminomethyl)-1-cyclohexaneacetic acid], the “protective effect against cardiozole cramp” value in the data set on cardiozole cramp is reported as “protective effect against cardiozole cramp”.

Regarding `NCC1(CC(=O)O)CCCCC1` [Example 2, 1-(aminomethyl)-1-cyclohexaneacetic acid], in data set [1] (setting [5]), the pH is given as 7.15. In addition, in data set [2], the “conversion of gabapentin” value was ≤ 0.2 % by weight of gabapentin.

In turn, `NCC1(CC(=O)O)CCCCC1` [Example 12, 1-(aminomethyl)-1-cyclohexaneacetic acid] registered a pH in data set [1] (setting [4]) of 7.08. Further, the “conversion of gabapentin” value in data set [2] was ≤ 0.2 % by weight of gabapentin. For the same compound, the “amount of lactam after storage” value in data set [2] (after a year of storage at 55° C. and 50% relative humidity) is recorded as “less than 0.5 % by weight”.

The values are drawn from patent US20040147607A1, “Stable gabapentin having pH within a controlled range” (priority 2000, published 2004).
